# Values quoted from earlier work in patent US20250278807A1, “MODERN MONETARY THEORY AND TRANSLATIONAL SCIENTIFIC RESEARCH” (priority 2025, published 2025).
# Read-outs that look alike come from different tables or passages of the source.
# Key:
# [1] = system: blood glucose
# [2] = molecular target: T1, beta amyloid peptide (1-40) aggregates (Homo sapiens, UniProt P05067); details: in vitro, aggregates formed with calcium ions; loss of Thioflavin T fluorescence
# T1 construct: beta amyloid peptide (1-40)
# T1 sequence (P05067 672-711 limits assumed): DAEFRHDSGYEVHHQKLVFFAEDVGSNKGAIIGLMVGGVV
# [3] = system: wide variety of cancer cells; details: in vitro
# [4] = system: wide variety of cancer cells; details: in vivo
# [5] = system: thoracic atheroma; details: administered intraperitoneally, cholesterol-fed rabbits
# [6] = system: chronic lumbar radicular pain; details: phase II trials, versus placebo
# [7] = system: melanoma tumors
# [8] = system: other malignant cell cultures; details: in vitro
# [9] = system: melanoma cell
# [10] = in vivo
# [11] = in vivo; remark: listed apart in the source
compound,measurement,setting,value
NCCCC[C@H](N)C(=O)O [L-lysine],effect on absorption of glucose,[1]; concomitant administration of glucose with L-lysine,decrease the absorption of glucose
same,oral bioavailability,"[1]; in vivo, po",well established
same,effect on blood glucose,[1]; oral administration,lower blood glucose
O=C(O)CC(O)(CC(=O)O)C(=O)O [citrate],dissolution of beta amyloid aggregates,[2],can be dissolved
"O=CC[C@@H](O)[C@H](O)[C@H](O)CO [2DG, 2-Deoxy-D-Glucose]",inhibition of growth of cancer cells,[3],inhibit growth
same,inhibition of growth of cancer cells,[4],inhibit growth
O=C([O-])CC(O)(CC(=O)[O-])C(=O)[O-].[Na+].[Na+].[Na+] [sodium citrate],effect on thoracic atheroma,[5],decreased thoracic atheroma
COc1c([C@H]2[C@H](C(=O)Nc3ccnc(C(N)=O)c3)O[C@@](C)(C(F)(F)F)[C@H]2C)ccc(F)c1F [suzetrigine],efficacy in chronic lumbar radicular pain,[6],no better efficacy than placebo
"C[C@@H](O)C(=O)O[C@H](C)C(=O)O [DLAD, D-Lactic Acid Dimer]",inhibition of growth of melanoma tumors,[7]; in vivo,inhibit growth
same,tumoricidal activity,[7]; intralesional application,dose response tumoricidal activity
same,inhibition of growth of other malignant cell cultures,[8],inhibit growth
same,inhibition of growth of cancer cells,[3],inhibit growth
same,inhibition of growth of cancer cells,[4],inhibit growth
same,inhibition of melanoma cell proliferation,[9]; compared to L-lactic acid dimer (P<0.0001),conclusively shown
same,efficacy at pH 7,[9]; pH 7,lost efficacy
Choline citrate,effect on thoracic atheroma,[5],decreased thoracic atheroma
CCN(CC)CCOC(=O)c1ccc(N)cc1 [Procaine],oral bioavailability,[10],orally bioavailable
O=[14CH][C@H](O)[C@H](O)[C@H](O)CO [D-ribose-1-C^14],excretion after infusion,[11],excreted unchanged in the urine
